pEC50: −log10 of the molar value. Read-outs that look alike come from different tables or passages of the source. Peptide text beside a SMILES is read from it.
How the values were obtained:
HS-68 and Hela cells = experiment: Toxicity of CADY variants, MTT assay (Table 1); assay type: cell-based, human
Description: The toxicity of CADY peptides has been investigated on different cell lines. Cells were incubated in the presence of increasing concentrations of CADY (from 0.1 μM to 1 mM) for 12 hrs and cell viability was estimated using MTT assay.
The different CADY variants have been tested on HS-68 and Hela cells.
The lack of toxicity of CADY/cargo complexes can be directly associated to absence of free carrier peptide in the solution (FIG. 4B).

[1] = test system: 5PC3 or Human H1299 adenocarcinoma cells; experiment: Intravenous injection of siRNA/CADY complexes, tumor mouse models; assay type: in vivo, NCR nude mice; conditions: only one injection, siRNA 10 μg
Description: Experiments were performed on two tumor mouse models.
(A) 1×10^6 5PC3 adenocarcinoma cells were injected subcutaneously into the flanks of NCR nude mice (day 1). siRNA/CADY-S complexes were obtained as described before at a ratio 1:20. CADY-S/siRNA complexes were injected intravenously at day 7. The size of the tumor was measured every day. Results correspond to the average of 5 different animals.
(B) 1×10^6 tumor cells expressing luciferase were injected intraperitoneally in the mice (4 to 8 week-old immune competent A/J female mices). Tumors were monitored using in vivo Imaging System (IVIS-Xenogen), which quantified total body bioluminescence after injection of D-luciferin. The tumor cells are visualized on three mice, each representative of one group (siRNA alone, CADY/siRNA complexes, and CADY-S/siRNA complexes).
The in vivo efficiency of CADY-S was then investigated, in order to determine if the cholesterol-modified form of CADY can improve siRNA delivery through intravenous injection and block tumor growth in vivo. Experiments were performed on two tumor mouse models, in which 5PC3 or Human H1299 adenocarcinoma cells were injected subcutaneously into the flanks of NCR nude mice.

[2] = test system: Jurkat, WI-38, HS-68 and HeLa cells; experiment: CADY-2-mediated delivery of p27-derived peptides, cell arrest in G1 by FACS; assay type: cell-based
Description: FIG. 12: The different p27-derived peptides were associated with CADY-2 at a molar ratio of 1/20, since it was determined that at this ratio, the average size of the particle is of about 100-200 nm in diameter. The formulations were obtained in phosphate buffer, using a fixed concentration of peptide of 1 μM. Cell lines were cultured in Dulbecco's Modified Eagle's Medium supplemented with 2 mM glutamine, 1% antibiotics (streptomycin 10'000 μg/ml, penicillin, 10'000 IU/ml) and 10% (w/v) fetal calf serum (FCS), at 37° C. in a humidified atmosphere containing 5% CO2. Cells were synchronized by serum privation during 40 hrs, and cultured in Dulbecco's Modified Eagle's Medium supplemented with 2 mM glutamine, 1% antibiotics. G1 synchronized cells were released upon serum addition, then overlaid with preformed CADY-2/peptide complexes. After 30 min incubation at 37° C., 1 ml of fresh DMEM supplemented with 10% fetal calf serum was added directly to the cells, without removing the overlay of CADY/peptide complexes, and cells were returned to the incubator. The level of cell arrest in G1 was analyzed by FACS 24 hrs after release.

[3] = test system: Human H1299 adenocarcinoma cells; experiment: Effect of p1p27/CADY complexes on tumor growth in vivo, intratumoral injection; design: species or system Swiss nude mice; conditions: 5 weeks after injection, control experiments
Description: The tumor animal model consists of Swiss nude mice, injected subcutaneously with 2×10^7 Human H1299 adenocarcinoma cells. CADY2/p1p27 complex and free CADY-2 and peptides were injected directly into the tumor (100-300 μg) after 1 and 4 weeks. p1p27/CADY complexes were obtained as described before at a ratio 1/20. Controls were performed by injecting PBS, CADY alone, or naked p1p27 instead of the p1p27/CADY-2 complex. The size of the tumor volume was measured with calipers once a week. Results correspond to the average of 5 different animals.

[4] = peptide delivered with CADY-2, ratio 1/20, 1 μM peptide, 24 hrs after release

Question: `CC(=O)NCC(=O)N[C@@H](CC(C)C)C(=O)N[C@@H](Cc1c[nH]c2ccccc12)C(=O)N[C@@H](CCCNC(=N)N)C(=O)N[C@@H](C)C(=O)N[C@@H](CC(C)C)C(=O)N[C@@H](Cc1c[nH]c2ccccc12)C(=O)N[C@@H](CCCNC(=N)N)C(=O)N[C@@H](CC(C)C)C(=O)N[C@@H](CC(C)C)C(=O)N[C@@H](CCCNC(=N)N)C(=O)N[C@@H](CO)C(=O)N[C@@H](CC(C)C)C(=O)N[C@@H](Cc1c[nH]c2ccccc12)C(=O)N[C@@H](CCCNC(=N)N)C(=O)N[C@@H](CC(C)C)C(=O)N[C@@H](CC(C)C)C(=O)N[C@@H](Cc1c[nH]c2ccccc12)C(=O)N[C@@H](CCCCN)C(=O)N[C@@H](C)C(=O)NCCSS[C@H]1CC[C@@]2(C)C(=CC[C@H]3[C@@H]4CC[C@H]([C@H](C)CCCC(C)C)[C@@]4(C)CC[C@@H]32)C1` [CADY-S2] (HELM PEPTIDE1{[ac].G.L.W.R.A.L.W.R.L.L.R.S.L.W.R.L.L.W.K.A.[CC(C)CCC[C@@H](C)[C@H]1CC[C@H]2[C@@H]3CC=C4C[C@@H](SSCCN[*:1])CC[C@]4(C)[C@H]3CC[C@]12C]}$$$$V2.0) was tested. Which pEC50 (HS-68 and Hela cells; 12 h) did it give?
Answer: Its pEC50 is 3.10.

Question: `CC(C)CCC[C@@H](C)[C@H]1CC[C@H]2[C@@H]3CC=C4C[C@@H](OC(=O)NCC(=O)N[C@@H](CC(C)C)C(=O)N[C@@H](Cc5c[nH]c6ccccc56)C(=O)N[C@@H](CCCNC(=N)N)C(=O)N[C@@H](C)C(=O)N[C@@H](CC(C)C)C(=O)N[C@@H](Cc5c[nH]c6ccccc56)C(=O)N[C@@H](CCCNC(=N)N)C(=O)N[C@@H](CC(C)C)C(=O)N[C@@H](CC(C)C)C(=O)N[C@@H](CCCNC(=N)N)C(=O)N[C@@H](CO)C(=O)N[C@@H](CC(C)C)C(=O)N[C@@H](Cc5c[nH]c6ccccc56)C(=O)N[C@@H](CCCNC(=N)N)C(=O)N[C@@H](CC(C)C)C(=O)N[C@@H](CC(C)C)C(=O)N[C@@H](Cc5c[nH]c6ccccc56)C(=O)N[C@@H](CCCCN)C(=O)N[C@@H](C)C(=O)NCCS)CC[C@]4(C)[C@H]3CC[C@]12C` [CADY-S] (HELM PEPTIDE1{[CC(C)CCC[C@@H](C)[C@H]1CC[C@H]2[C@@H]3CC=C4C[C@@H](OC(=O)[*:2])CC[C@]4(C)[C@H]3CC[C@]12C].G.L.W.R.A.L.W.R.L.L.R.S.L.W.R.L.L.W.K.A.[SCCN[*:1]]}$$$$V2.0) was tested. Which pEC50 (HS-68 and Hela cells; complexed with cargo (ratio 1/20), MTT, read-out: complexed EC50) did it give?
Answer: Its pEC50 is 3.00.

Question: What about the tumor growth [1] of the same compound?
Answer: The tumor growth was “fully abolish the tumor growth”.

Question: Which “cell cycle arrest in G1” value [2, 4] does the source give for “NRTEENVSDGSPNAGSVEQTPKKPGLR [p2p27, p27-derived peptide used as a negative control, reference compound]” here?
Answer: The value was “no effect”.

Question: Which “efficiency compared with published TAT or Pen covalent based strategy” value ([2]; pRXL with CADY strategy) does the source give for PSLERMDAR [pRXL] here?
Answer: Its value is “at least 2 fold”.

Question: And the “cell cycle arrest in G1” value [2, 4]?
Answer: The value was “induced a cell cycle arrest in G1”.

Question: RVSNGSPSLERMDARQAEHPKPSACRNL [p1p27] was tested. Which “cell cycle arrest in G1” value ([2]; carrier alone or free peptide) did it give?
Answer: Its value is “no effect”.

Question: And the “cell cycle arrest in G1” value [2, 4]?
Answer: The value was “induced a cell cycle arrest in G1”.

Question: And the “increase of tumor size” value [3]?
Answer: The value was 5 fold.
